Results as given in patent publication US20230212131A1, “COLLAGEN 1 TRANSLATION INHIBITORS AND METHODS OF USE THEREOF” (Anima Biotech Inc., priority 2020, published 2023).

System: collagen 1 (COL1)
Experiment: WI-38 collagen 1 inhibition assay
Type: cell-based, human
Conditions: Cellular EC50, WI-38 cells; values are classes of LogEC50
Text: All compounds were profiled for cellular potency in inhibition of collagen 1 (COL1) protein translation using a phenotypic screening platform.
WI-38 cells (ATCC® CCL-75™) were maintained in MEM EAGLE (NEAA) W. GLUTAMIN (Biological Industries, Cat. 06-1040-15-1A) containing 10% fetal bovine serum (FBS) and 1% Penicillin-Streptomycin Solution. To synchronize the cells (cell cycle synchronization) prior to induction of collagen synthesis, the cells were starved using DMEM-low glucose supplemented with 0.25% FBS for two hours and then without FBS for 24 hours. To induce collagen synthesis, the cells were treated with a collagen induction cocktail for the indicated time. Compounds were added with induction.
Cells in 96-well or 384-well plates were fixed for 20 min in 4% paraformaldehyde (PFA, ENCO, Cat. sc-281692). Following two washes with 1×PBS, cells were treated with hydrogen peroxide (Acros, Cat: 7722-84-1) for 10 minutes and then washed twice with 1×PBS. Cells were then incubated over-night at 4° C. with Anti-Collagen I (Sigma-Aldrich, Cat: C 2456) antibody and washed three times with 1×PBS. Cells were then incubated with a suitable secondary fluorescently-tagged antibody and nuclei stained with DAPI, for 1 hour, and then washed 3 times with 1×PBS.
Cell images were taken with Operetta (Perkin Elmer, USA), a wide-field fluorescence microscope at 20× magnification. After acquisition, the images were transferred to Columbus software (Perkin-Elmer) for image analysis. In Columbus, cells were identified by their nucleus, using the “Find Nuceli” module and cytoplasm was detected based on the secondary antibody channel. Subsequently, the fluorescent signal was enumerated in the identified cell region. Data was exported to a data analysis and visualization software, Tibco Spotfire, USA.

CS(=O)(=O)N1CCN(C2CCC(C(=O)Nc3nc(-c4ccccc4Cl)cs3)CC2)CC1 (single isomer, unassigned) [Compound 434, (1s,4s)-N-(4-(2-chlorophenyl)thiazol-2-yl)-4-(4-(methylsulfonyl)piperazin-1-yl)cyclohexane-1-carboxamide]
COL1 Efficacy (LogEC50): + (+: >−5)

CS(=O)(=O)N1CCN(C2CCC(C(=O)Nc3nc(-c4ccccc4Cl)cs3)CC2)CC1 (single isomer, unassigned) [Compound 435, (1r,4r)-N-(4-(2-chlorophenyl)thiazol-2-yl)-4-(4-(methylsulfonyl)piperazin-1-yl)cyclohexane-1-carboxamide]
COL1 Efficacy (LogEC50): ++ (++: −5 to −6)

COc1ccc(C(=O)Nc2nc(-c3ccc(Cl)cc3Cl)cs2)cc1 [Compound 300, N-(4-(2,4-dichlorophenyl)thiazol-2-yl)-4-methoxybenzamide]
COL1 Efficacy (LogEC50): ++ (++: −5 to −6)

COc1ccc(C(=O)Nc2nc(-c3ccc(C)cc3C)cs2)cc1 [Compound 301, N-(4-(2,4-dimethylphenyl)thiazol-2-yl)-4-methoxybenzamide]
COL1 Efficacy (LogEC50): +++ (+++: <−6)

O=C(Nc1nc(-c2ccc(Cl)cc2Cl)cs1)c1ccccc1 [Compound 302, N-(4-(2,4-dichlorophenyl)thiazol-2-yl)benzamide]
COL1 Efficacy (LogEC50): ++ (++: −5 to −6)

O=C(Nc1nc(-c2ccc(Cl)cc2Cl)cs1)c1ccc(Cl)cc1 [Compound 303, 4-chloro-N-(4-(2,4-dichlorophenyl)thiazol-2-yl)benzamide]
COL1 Efficacy (LogEC50): + (+: >−5)

COc1ccc(C(=O)Nc2nc(-c3ccccc3Cl)cs2)cc1 [Compound 304, N-(4-(2-chlorophenyl)thiazol-2-yl)-4-methoxybenzamide]
COL1 Efficacy (LogEC50): +++ (+++: <−6)

COc1ccc(C(=O)Nc2nc(-c3cc(C)cc(C)c3)cs2)cc1 [Compound 305, N-(4-(3,5-dimethylphenyl)thiazol-2-yl)-4-methoxybenzamide]
COL1 Efficacy (LogEC50): ++ (++: −5 to −6)

O=C(Nc1nc(-c2ccc(Cl)cc2Cl)cs1)C1CCOCC1 [Compound 306, N-(4-(2,4-dichlorophenyl)thiazol-2-yl)tetrahydro-2H-pyran-4-carboxamide]
COL1 Efficacy (LogEC50): ++ (++: −5 to −6)

Cc1ccc(C(=O)Nc2nc(-c3ccc(Cl)cc3Cl)cs2)cc1 [Compound 307, N-(4-(2,4-dichlorophenyl)thiazol-2-yl)-4-methylbenzamide]
COL1 Efficacy (LogEC50): +++ (+++: <−6)

O=C(Nc1nc(-c2ccc(Cl)cc2Cl)cs1)c1ccc(F)cc1 [Compound 308, N-(4-(2,4-dichlorophenyl)thiazol-2-yl)-4-fluorobenzamide]
COL1 Efficacy (LogEC50): ++ (++: −5 to −6)

COc1ccc(C(=O)Nc2nc(-c3cc(Cl)cc(Cl)c3)cs2)cc1 [Compound 315, N-(4-(3,5-dichlorophenyl)thiazol-2-yl)-4-methoxybenzamide]
COL1 Efficacy (LogEC50): +++ (+++: <−6)

COc1ccc(C(=O)Nc2nc(-c3cccnc3)cs2)cc1 [Compound 316, 4-methoxy-N-[4-(3-pyridyl)thiazol-2-yl]benzamide]
COL1 Efficacy (LogEC50): ++ (++: −5 to −6)

Cc1ccc(C(=O)Nc2nc(-c3cnn(C)c3)cs2)cn1 [Compound 317, 6-methyl-N-[4-(1-methylpyrazol-4-yl)thiazol-2-yl]pyridine-3-carboxamide]
COL1 Efficacy (LogEC50): + (+: >−5)

COc1ncccc1-c1csc(NC(=O)c2ccc(C)nc2)n1 [Compound 319, N-[4-(2-methoxy-3-pyridyl)thiazol-2-yl]-6-methyl-pyridine-3-carboxamide]
COL1 Efficacy (LogEC50): ++ (++: −5 to −6)

COc1ccc(C(=O)Nc2nc(-c3ccc(F)cc3Cl)cs2)cc1 [Compound 321, N-[4-(2-chloro-4-fluoro-phenyl)thiazol-2-yl]-4-methoxy-benzamide]
COL1 Efficacy (LogEC50): +++ (+++: <−6)

Cc1ccc(C(=O)Nc2nc(-c3cccnc3)cs2)cn1 [Compound 323, 6-methyl-N-[4-(3-pyridyl)thiazol-2-yl]pyridine-3-carboxamide]
COL1 Efficacy (LogEC50): + (+: >−5)

COc1ccc(C(=O)Nc2nc(-c3ccc(F)cc3F)cs2)cc1 [Compound 325, N-[4-(2,4-difluorophenyl)thiazol-2-yl]-4-methoxy-benzamide]
COL1 Efficacy (LogEC50): +++ (+++: <−6)

COc1ccc(C(=O)Nc2nc(-c3cnccc3OC)cs2)cc1 [Compound 326, 4-methoxy-N-[4-(4-methoxy-3-pyridyl)thiazol-2-yl]benzamide]
COL1 Efficacy (LogEC50): ++ (++: −5 to −6)

COCCOc1ccccc1-c1csc(NC(=O)c2ccc(OC)cc2)n1 [Compound 328, 4-methoxy-N-[4-[2-(2-methoxyethoxy)phenyl]thiazol-2-yl]benzamide]
COL1 Efficacy (LogEC50): ++ (++: −5 to −6)

COc1ccc(C(=O)Nc2nc(-c3cnn(C)c3)cs2)cc1 [Compound 331, 4-methoxy-N-[4-(1-methylpyrazol-4-yl)thiazol-2-yl]benzamide]
COL1 Efficacy (LogEC50): + (+: >−5)

COc1ccc(C(=O)Nc2nc(-c3cccnc3OC)cs2)cc1 [Compound 332, 4-methoxy-N-[4-(2-methoxy-3-pyridyl)thiazol-2-yl]benzamide]
COL1 Efficacy (LogEC50): ++ (++: −5 to −6)

COc1ccc(C(=O)Nc2nc(-c3cnccc3C)cs2)cc1 [Compound 333, 4-methoxy-N-[4-(4-methyl-3-pyridyl)thiazol-2-yl]benzamide]
COL1 Efficacy (LogEC50): ++ (++: −5 to −6)

O=C(Nc1nc(-c2ccccc2Cl)cs1)c1ccc(N2CCNCC2)cc1 [Compound 334, N-(4-(2-chlorophenyl)thiazol-2-yl)-4-(piperazin-1-yl)benzamide]
COL1 Efficacy (LogEC50): +++ (+++: <−6)

COc1ccc(C(=O)Nc2nc(-c3cncnc3C)cs2)cc1 [Compound 335, 4-methoxy-N-[4-(4-methylpyrimidin-5-yl)thiazol-2-yl]benzamide]
COL1 Efficacy (LogEC50): + (+: >−5)

COc1ccc(C(=O)Nc2nc(-c3ccccc3F)cs2)cc1 [Compound 336, N-[4-(2-fluorophenyl)thiazol-2-yl]-4-methoxy-benzamide]
COL1 Efficacy (LogEC50): ++ (++: −5 to −6)

COc1ccc(C(=O)Nc2nc(-c3cccc4c3OCCO4)cs2)cc1 [Compound 337, N-[4-(2,3-dihydro-1,4-benzodioxin-5-yl)thiazol-2-yl]-4-methoxy-benzamide]
COL1 Efficacy (LogEC50): ++ (++: −5 to −6)

COc1ccc(C(=O)Nc2nc(-c3cncnc3)cs2)cc1 [Compound 338, 4-methoxy-N-(4-pyrimidin-5-ylthiazol-2-yl)benzamide]
COL1 Efficacy (LogEC50): + (+: >−5)

Cc1ccc(C(=O)Nc2nc(-c3cncnc3)cs2)cn1 [Compound 340, 6-methyl-N-(4-pyrimidin-5-ylthiazol-2-yl)pyridine-3-carboxamide]
COL1 Efficacy (LogEC50): +++ (+++: <−6)

COCCOc1ccccc1-c1csc(NC(=O)c2ccc(C)nc2)n1 [Compound 341, N-[4-[2-(2-methoxyethoxy)phenyl]thiazol-2-yl]-6-methyl-pyridine-3-carboxamide]
COL1 Efficacy (LogEC50): ++ (++: −5 to −6)

Cc1ccc(C(=O)Nc2nc(-c3cccc4c3OCCO4)cs2)cn1 [Compound 342, N-[4-(2,3-dihydro-1,4-benzodioxin-5-yl)thiazol-2-yl]-6-methyl-pyridine-3-carboxamide]
COL1 Efficacy (LogEC50): ++ (++: −5 to −6)

COc1ccc(C(=O)Nc2nc(-c3cccnc3C)cs2)cc1 [Compound 343, 4-methoxy-N-[4-(2-methyl-3-pyridyl)thiazol-2-yl]benzamide]
COL1 Efficacy (LogEC50): +++ (+++: <−6)

Cc1ccc(C(=O)Nc2nc(-c3cccnc3C)cs2)cn1 [Compound 344, 6-methyl-N-[4-(2-methyl-3-pyridyl)thiazol-2-yl]pyridine-3-carboxamide]
COL1 Efficacy (LogEC50): +++ (+++: <−6)

Cc1ccc(C(=O)Nc2nc(-c3cncnc3C)cs2)cn1 [Compound 347, 6-methyl-N-[4-(4-methylpyrimidin-5-yl)thiazol-2-yl]pyridine-3-carboxamide]
COL1 Efficacy (LogEC50): ++ (++: −5 to −6)

O=C(Nc1nc(-c2ccccc2Cl)co1)c1ccc(N2CCOCC2)cc1 [Compound 368, N-[4-(2-chlorophenyl)oxazol-2-yl]-4-morpholino-benzamide]
COL1 Efficacy (LogEC50): ++ (++: −5 to −6)

O=C(Nc1nc(-c2ccccn2)cs1)c1ccc(N2CCOCC2)cc1 [Compound 370, 4-morpholino-N-[4-(2-pyridyl)thiazol-2-yl]benzamide]
COL1 Efficacy (LogEC50): + (+: >−5)

COCCC(=O)N1CCN(c2ccc(C(=O)Nc3nc(-c4ccccc4Cl)cs3)cc2)CC1 [Compound 376, N-(4-(2-chlorophenyl)thiazol-2-yl)-4-(4-(3-methoxypropanoyl)piperazin-1-yl)benzamide]
COL1 Efficacy (LogEC50): +++ (+++: <−6)

COCCN1CCN(c2ccc(C(=O)Nc3nc(-c4ccccc4Cl)cs3)cc2)CC1 [Compound 377, N-(4-(2-chlorophenyl)thiazol-2-yl)-4-(4-(2-methoxyethyl)piperazin-1-yl)benzamide]
COL1 Efficacy (LogEC50): +++ (+++: <−6)

COCCOc1ccccc1-c1csc(NC(=O)c2ccc(N3CCOCC3)cc2)n1 [Compound 378, N-(4-(2-(2-methoxyethoxy)phenyl)thiazol-2-yl)-4-morpholinobenzamide]
COL1 Efficacy (LogEC50): + (+: >−5)
